The subject of test [1] is TPA-induced ear edema and acanthosis in Balb/c mice. The experiment in a line: Mouse TPA-induced ear-swelling model. Type of test: in vivo. The conditions noted are these: topical, 240 h, 1% w/v solution, 20 μL applied to ear once a day from day 0 to day 9, female Balb/c mice, read-out: Inhibition rate of change in ear thickness on day 10. The procedure:
Seven-week-old female Balb/c mice (Charles River Laboratories Japan) were used. 20 μL of a 20 ng/mL solution of TPA (Wako Pure Chemical Industries, 162-23591) dissolved in 5% DMSO/acetone was applied to the outer side of the mouse ear on day 0, day 2, day 4, day 7 and day 9 to induce ear edema and acanthosis. The test compound was dissolved in a 5% DMSO/acetone solution (concentration: 1% w/v) and 20 μL of the resulting solution was applied to the outer side of the ear once a day from day 0 to day 9. For the control group, a 5% DMSO/acetone solution was similarly applied. The TPA solution and the test compound solution were mixed and applied on the days for TPA application (day 0, day 2, day 4, day 7 and day 9). The ear thickness was chronologically measured on days 0-4 and days 7-10 using a micrometer (Mitutoyo, MDC-25MJT). The change in ear thickness and the inhibition rate were determined by the following formulas. Change in ear thickness=(ear thickness measured on day 10)−(ear thickness measured on day 0 before TPA application) Inhibition rate (%)=100−(change in ear thickness for test compound group/change in ear thickness for control group)×100

In test [2] the test system is normal human neonatal foreskin epidermal keratinocytes (NHEK-F). The experiment in a line: Cell proliferation inhibition test. Type of test: cell-based. The following applies: Keratinocyte, 72 h, NHEK-F cells, three days incubation, ATPlite or CellTiterGlo, read-out: IC50 (concentration of the compound at which the cell count is reduced by 50%). Summed up: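 IC50 is the compound level halving cell count relative to untreated wells, with counts from ATP-based luminescence (ATPlite or CellTiterGlo). Readout followed 3 days of compound exposure of overnight-attached neonatal foreskin keratinocytes (2×10^3/well, Humedia-EG2 medium).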
(In general: ATP-based viability assays read luminescence as a measure of living cells.)

On to `CCn1c(-c2ccccc2)cc2cc(Nc3ncc(C4CC4)cc3C(=O)O)ccc21` [Example 142, 5-cyclopropyl-2-((1-ethyl-2-phenyl-1H-indol-5-yl)amino)nicotinic acid], for which, in test [1], the inhibition in vivo at 1 % strength was not below 20%. Further, in test [2], the IC50 fell in the range of 10 to 100 nM.
As for `N#Cc1cccc(Cn2ccc3cc(Nc4ncc(C5CC5)cc4C(=O)O)ccc32)c1` [Example 453, 2-((1-(3-cyanobenzyl)-1H-indol-5-yl)amino)-5-cyclopropylnicotinic acid], the inhibition in vivo at 1 % strength in test [1] is not below 20%. Also, the IC50 in test [2] fell in the range of 10 to 100 nM.
The corresponding values for `Cn1ccc2cc(Nc3ncc(C4CC4)cc3C(=O)O)cc(CCC3CC3)c21` [Example 470, 5-cyclopropyl-2-((7-(2-cyclopropylethyl)-1-methyl-1H-indol-5-yl)amino)nicotinic acid] are not below 20% and not above 10 nM.
For `Cn1ccc2cc(Nc3ncc(C4CC4)cc3C(=O)O)cc(-c3ccc(F)cc3)c21` [Example 466, 5-cyclopropyl-2-((7-(4-fluorophenyl)-1-methyl-1H-indol-5-yl)amino)nicotinic acid] the same measures were not below 20% and not above 10 nM.
As for `Cn1ccc2cc(Nc3ncc(C4CC4)cc3C(=O)O)cc(-c3ccc(F)cc3F)c21` [Example 588, 5-cyclopropyl-2-((7-(2,4-difluorophenyl)-1-methyl-1H-indol-5-yl)amino)nicotinic acid], the inhibition in vivo at 1 % strength in test [1] was not below 20%. For the same molecule, the IC50 in test [2] is not above 10 nM.
For `O=C(O)c1cc(C2CC2)cnc1Nc1ccc2c(ccn2Cc2cccc(C(F)(F)F)c2)c1` [Example 450, 5-cyclopropyl-2-((1-(3-(trifluoromethyl)benzyl)-1H-indol-5-yl)amino)nicotinic acid] the same measures were not below 20% and not above 10 nM.
Consider `CC(C)CCn1ccc2cc(Nc3ncc(C4CC4)cc3C(=O)O)ccc21` [Example 448, 5-cyclopropyl-2-(1-isopentyl-1H-indol-5-ylamino)nicotinic acid], for which the inhibition in vivo at 1 % strength in test [1] was not below 20%. In test [2], the IC50 was not above 10 nM.
With `O=C(O)c1cc(C2CC2)cnc1Nc1cccc2c1ccn2Cc1ccccc1` [Example 208, 2-((1-benzyl-1H-indol-4-yl)amino)-5-cyclopropylnicotinic acid], in test [1], the inhibition in vivo at 1 % strength was not below 20%. The IC50 in test [2] lay within 10 to 100 nM.
In the case of `Cn1ccc2cc(Nc3ncc(C4CC4)cc3C(=O)O)cc(-c3ccccc3F)c21` [Example 464, 5-cyclopropyl-2-((7-(2-fluorophenyl)-1-methyl-1H-indol-5-yl)amino)nicotinic acid], in test [1], the inhibition in vivo at 1 % strength is not below 20%. The IC50 in test [2] is not above 10 nM.
Take `Cn1ccc2cc(Nc3ncc(C4CC4)cc3C(=O)O)cc(-c3ccccc3)c21` [Example 222, 5-cyclopropyl-2-((1-methyl-7-phenyl-1H-indol-5-yl)amino)nicotinic acid]: the inhibition in vivo at 1 % strength in test [1] is not below 20%. The IC50 in test [2] was not above 10 nM.
`COCCCc1cc(Nc2ncc(C3CC3)cc2C(=O)O)cc2ccn(C)c12` [Example 468, 5-cyclopropyl-2-((7-(3-methoxypropyl)-1-methyl-1H-indol-5-yl)amino)nicotinic acid]: the inhibition in vivo at 1 % strength in test [1] is not below 20%. Also, in test [2], the IC50 was 10 to 100 nM.
For `O=C(O)c1cc(C2CCCC2)cnc1Nc1ccc2c(ccn2Cc2ccccc2)c1` [Example 128, 2-((1-benzyl-1H-indol-5-yl)amino)-5-cyclopentylnicotinic acid], the inhibition in vivo at 1 % strength in test [1] is not below 20%.
With `O=C(O)c1cc(C2CC2)cnc1Nc1ccc2c(ccn2Cc2ccc(F)cc2)c1` [Example 241, 5-cyclopropyl-2-((1-(4-fluorobenzyl)-1H-indol-5-yl)amino)nicotinic acid], in test [1], the inhibition in vivo at 1 % strength is not below 20%. For the same molecule, the IC50 in test [2] was not above 10 nM.
As for `CS(=O)(=O)NC(=O)c1cc(C2CC2)cnc1Nc1ccc2c(ccn2Cc2ccccc2)c1` [Example 149, 2-((1-benzyl-1H-indol-5-yl)amino)-5-cyclopropyl-N-(methylsulfonyl)nicotinamide], in test [1], the inhibition in vivo at 1 % strength was not below 20%. In addition, the IC50 in test [2] is 10 to 100 nM.
Consider `Cn1ccc2cc(Nc3ncc(C4CC4)cc3C(=O)O)cc(-c3ccc(C#N)cc3)c21` [Example 484, 2-((7-(4-cyanophenyl)-1-methyl-1H-indol-5-yl)amino)-5-cyclopropylnicotinic acid], for which, in test [1], the inhibition in vivo at 1 % strength was not below 20%. The IC50 in test [2] was not above 10 nM.
Turning to `O=C(O)c1cc(C2CC2)cnc1Nc1cccc2c1ccn2CC1CCOC1` (stereo not drawn) [Example 427, 5-cyclopropyl-2-((1-((tetrahydrofuran-3-yl)methyl)-1H-indol-4-yl)amino)nicotinic acid], in test [2], the IC50 was in the range of 10 to 100 nM.
On the same count and under the same terms, under `CCn1cc(-c2ccccc2)c2cc(Nc3ncc(C4CC4)cc3C(=O)O)ccc21` [Example 170, 5-cyclopropyl-2-((1-ethyl-3-phenyl-1H-indol-5-yl)amino)nicotinic acid] stands 10 to 100 nM; under `COc1ccc(Cn2ccc3cc(Nc4ncc(C5CC5)cc4C(=O)O)ccc32)cc1` [Example 623, 5-cyclopropyl-2-((1-(4-methoxybenzyl)-1H-indol-5-yl)amino)nicotinic acid], 10 to 100 nM; under `O=C(O)c1cc(C2CC2)cnc1Nc1cccc2c(-c3ccccc3)ccnc12` [Example 187, 5-cyclopropyl-2-((4-phenylquinolin-8-yl)amino)nicotinic acid], not above 10 nM.
Consider `O=C(O)c1cc(C2CC2)cnc1Nc1ccc2c(ccn2Cc2ccccc2Cl)c1` [Example 459, 2-((1-(2-chlorobenzyl)-1H-indol-5-yl)amino)-5-cyclopropylnicotinic acid], for which the IC50 in test [2] is not above 10 nM.
Take `Cn1ccc2cc(Nc3ncc(C4CC4)cc3C(=O)O)cc(C3=CCOCC3)c21` [Example 471, 5-cyclopropyl-2-((7-(3,6-dihydro-2H-pyran-4-yl)-1-methyl-1H-indol-5-yl)amino)nicotinic acid]: the IC50 in test [2] was not above 10 nM.
Consider `Cn1ccc2cc(Nc3ncc(C4CC4)cc3C(=O)O)cc(-c3ccccc3Cl)c21` [Example 488, 2-((7-(2-chlorophenyl)-1-methyl-1H-indol-5-yl)amino)-5-cyclopropylnicotinic acid], for which the IC50 in test [2] is not above 10 nM.
As for `O=C(O)c1cc(C2CC2)cnc1Nc1ccc2cc(-c3ccccc3)ccc2c1` [Example 218, 5-cyclopropyl-2-((6-phenylnaphthalen-2-yl)amino)nicotinic acid], in test [2], the IC50 was in the range of 10 to 100 nM.
Consider `O=C(O)c1cc(Cl)ccc1Nc1ccc2c(ccn2-c2ccc(Cl)cc2)c1` [Example 47, 5-chloro-2-((1-(4-chlorophenyl)-1H-indol-5-yl)amino)benzoic acid], for which the IC50 in test [2] is not above 10 nM.
As for `O=C(O)c1cc(C2CC2)cnc1Nc1ccc2c(ccn2C(=O)c2ccccc2)c1` [Example 575, 2-((1-benzoyl-1H-indol-5-yl)amino)-5-cyclopropylnicotinic acid], in test [2], the IC50 lay in the range of 10 to 100 nM.
For `CC(C)Cn1c(CO)cc2cc(Nc3ncc(C4CC4)cc3C(=O)O)ccc21` [Example 175, 5-cyclopropyl-2-((2-(hydroxymethyl)-1-isobutyl-1H-indol-5-yl)amino)nicotinic acid], the IC50 in test [2] was in the range of 100 to 1000 nM.
Turning to `Cn1ccc2cc(Nc3ncc(C4CC4)cc3C(=O)O)cc(-c3ccccc3C(F)(F)F)c21` [Example 479], the IC50 in test [2] is not above 10 nM.
Turning to `COCCn1ccc2cc(Nc3ncc(C4CC4)cc3C(=O)O)ccc21` [Example 129, 5-cyclopropyl-2-((1-(2-methoxyethyl)-1H-indol-5-yl)amino)nicotinic acid], in test [2], the IC50 is 100 to 1000 nM.
In the case of `Cc1cc(C)cc(Cn2ccc3cc(Nc4ncc(C5CC5)cc4C(=O)O)ccc32)c1` [Example 498, 5-cyclopropyl-2-((1-(3,5-dimethylbenzyl)-1H-indol-5-yl)amino)nicotinic acid], in test [2], the IC50 is not above 10 nM.
On the same count and under the same terms, as for `O=C(O)c1cc(C2CC2)ccc1Nc1cccc2c1ccc(=O)n2-c1ccccc1` [Example 539, 5-cyclopropyl-2-((2-oxo-1-phenyl-1,2-dihydroquinolin-5-yl)amino)benzoic acid], the figure is not above 10 nM; as for `O=C(O)c1cc(C2CC2)cnc1Nc1cccc2c1ccn2CC1CCCCC1` [Example 429, 2-((1-(cyclohexylmethyl)-1H-indol-4-yl)amino)-5-cyclopropylnicotinic acid], not above 10 nM; as for `O=C(O)c1cc(Cl)ccc1Nc1ccc2c(ccn2-c2ccncc2)c1` [Example 315, 5-chloro-2-((1-(pyridin-4-yl)-1H-indol-5-yl)amino)benzoic acid], 10 to 100 nM.
Turning to `COC/C=C/c1cc(Nc2ncc(C3CC3)cc2C(=O)O)cc2ccn(C)c12` [Example 467, (E)-5-cyclopropyl-2-((7-(3-methoxyprop-1-en-1-yl)-1-methyl-1H-indol-5-yl)amino)nicotinic acid], the IC50 in test [2] was 10 to 100 nM.
Turning to `O=C(O)c1cc(C2CC2)cnc1Nc1ccc2c(ccn2CC2CCCCO2)c1` (stereo not drawn) [Example 414, 5-cyclopropyl-2-((1-((tetrahydro-2H-pyran-2-yl)methyl)-1H-indol-5-yl)amino)nicotinic acid], in test [2], the IC50 fell in the range of 10 to 100 nM.

Source of the values: patent US9624215B2, “Amine derivative or salt thereof” (TOYAMA CHEMICAL CO., LTD., priority 2012, dated 2017).
